# Test system: Acinetobacter baumannii (Ab23)
# Assay: MIC shift assay of antibiotics (broth microdilution)
# Format: cell-based
# Settings: compound concentration 2 μM; fold shift of colistin MIC; nc = no changeover or no shift
# In short: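 Broth microdilution MIC shift assay against Acinetobacter baumannii. Overnight cultures in cation-adjusted Mueller Hinton broth at 37° C. were sub-cultured 1:200, grown to OD600=0.5 to 0.8, diluted to OD600=0.01, and added (50 μL) to wells holding 50 μL of 2× antibiotic stocks for a starting OD600 of 0.005. After 18 to 20 h at 37° C. with shaking, OD600 was read to obtain MICs.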
row,Compound,"colistin MIC shift, Ab23 at (compd concentration)"
1,CCN(CC)CCCNc1nc(-c2cc(Br)cc(C(F)(F)F)c2)nc2c(C)cccc12 [compound 352],8-16x
2,Cc1cccc2c(NCCCN(C)C)nc(-c3cccc(-c4ccc(C(F)(F)F)c(F)c4)c3)nc12 [compound 355],8-16x
3,CNCCCN(C)c1nc(-c2cccc(-c3cc(F)cc(C(F)(F)F)c3)c2)nc2c(Cl)cccc12 [compound 350],8-16x
4,FC(F)(F)c1cc(-c2c[nH]c3cc(Cl)c(Cl)cc23)ccc1Cl [compound 436],4x
5,Clc1ccc(/C=C/c2c[nH]c3ccc(Br)cc23)cc1Cl [compound 363],≧16x (2 μM)
6,Cc1cccc2c(NCCCN3CCN(C)CC3)nc(-c3cc(Br)cc(C(F)(F)F)c3)nc12 [compound 354],8-16x
7,FC(F)(F)c1cccc(-c2c[nH]c3ccc(Cl)cc23)c1 [compound 430],16x
8,Clc1ccc2[nH]cc(/C=C/c3ccc(Cl)c(Cl)c3)c2c1 [compound 365],≧16x (2 μM)
9,CN(C)CC(=O)n1cc(-c2ccc(Cl)c(Cl)c2)c2cc(Cl)ccc21 [compound 362],16x

# Same assay, conditions: compound concentration 4 μM; fold shift of colistin MIC; nc = no changeover or no shift
row,Compound,"colistin MIC shift, Ab23 at (compd concentration)"
1,CN(C)CCCNc1nc(-c2cccc(-c3cc(C(F)(F)F)ccc3F)c2)nc2cc(C(F)(F)F)ccc12 [compound 482],32x
2,CN(C)CCOC(=O)n1cc(-c2ccc(Cl)c(Cl)c2)c2cc(Cl)ccc21 [362a],8x
3,CNCCCNc1nc(-c2cccc(-c3cccc(C(F)(F)F)c3)c2)nc2c(C)cccc12 [compound 478],4x
4,Cc1cccc2c(NCCCN(C)C)nc(-c3cc(-c4ccccn4)cc(C(F)(F)F)c3)nc12 [524b],16x
5,Fc1ccc2c(/C=C/c3cc(Br)cc(Br)c3)c[nH]c2c1 [compound 389],16x
6,Cc1cccc2c(NCCCN(C)C)nc(-c3cccc(-c4cccc(C(F)(F)F)c4)c3)nc12 [compound 466],8-16x
7,Cc1cccc2c(NCCCN(C)C)nc(-c3cc(-c4cccnc4)cc(C(F)(F)F)c3)nc12 [compound 510],16x
8,Cc1c(-c2ccccc2)ccc2c(NCCCN(C)C)nc(-c3cc(-c4ccccc4)cc(C(F)(F)F)c3)nc12 [524e],4x
9,Fc1ccc2c(/C=C/c3cc(Cl)cc(Cl)c3)c[nH]c2c1 [compound 388],16x
10,Cc1cccc2c(NCCCN(C)C)nc(-c3cn(Cc4ccc(Cl)cc4)c4c(Cl)cccc34)nc12 [compound 577],16x
11,CCN(CC)CCCC(C)Nc1nc(-c2cn(Cc3ccccc3)c3c(Cl)cccc23)nc2c(Br)cccc12 (racemic) [compound 568],4x
12,CN(C)CCCNc1nc(/C=C/c2cc(Cl)ccc2Cl)nc2c(C(F)(F)F)cccc12 [compound 335],16x
13,CCN(CC)CCCC(C)Nc1nc(-c2cn(Cc3ccccc3)c3c(Cl)cccc23)nc2cc(Cl)ccc12 (racemic) [compound 584],8x
14,FC(F)(F)c1ccc2[nH]cc(/C=C/c3ccc(Cl)c(Cl)c3)c2c1 [compound 369],32x
15,Cc1cccc2c(NCCCN(C)C)nc(-c3cccc(-c4cc(C(F)(F)F)ccc4F)c3)nc12 [compound 474],32x
16,Cc1cccc2c(NCCCN(C)C)nc(-c3cc(F)cc(C(F)(F)F)c3)nc12 [compound 508],8x
17,"Clc1ccc2[nH]cc(-c3ccc(Cl)c(Cl)c3)c2c1 [compound 395, 5-Chloro-3-(3,4-dichlorophenyl)-1H-indole]",8x
18,Cc1cccc2c(NCCN(C)C)nc(-c3cc(-c4ccccc4)cc(C(F)(F)F)c3)nc12 [524f],32x
19,Fc1ccc2c(/C=C/c3ccc(Br)c(Br)c3)c[nH]c2c1 [compound 378],16-32 x

row,Compound,"colistin MIC shift, Ab23 at (compd concentration)"
1,Clc1ccc(/C=C/c2c[nH]c3ccc(Br)cc23)cc1Cl [compound 363],32-64x (4 μM);
2,Cc1c(-c2ccccc2)ccc2c(NCCCN(C)C)nc(-c3cc(Br)cc(C(F)(F)F)c3)nc12 [524d],16-32x
3,Cc1cccc2c(NCCCN(C)C)nc(-c3cccc(-c4ccc(C(F)(F)F)cc4F)c3)nc12 [compound 472],16x
4,CCN(CC)CCCC(C)Nc1nc(-c2ccc3cc(Cl)c(Cl)cc3c2)nc2c(C)cccc12 (centres unmarked) [compound 443],16x
5,CN(C)CCCNc1nc(/C=C/c2cc(C(F)(F)F)c(C(F)(F)F)cc2C(F)(F)F)nc2c(C(F)(F)F)cccc12 [compound 331],16x
6,CCC(N)C(=O)n1cc(/C=C/c2ccc(Cl)c(Cl)c2)c2cc(Br)ccc21 (centres unmarked) [362d],32x
7,Cc1cccc2c(NCCCN(C)C)nc(-c3cc(Br)c4ccccc4c3)nc12 [compound 446],8-16x
8,Cc1cccc2c(NCCCN(C)C)nc(-c3cc(-c4ccccc4Cl)cc(C(F)(F)F)c3)nc12 [compound 513],32x
9,"E-1-(5-bromo-3-(3,4-dichlorostyryl)-1H-indol-1-yl)-2-(dimethylamino)ethan-1-one [compound 457]",16x
10,"3,3′-(propane-2,2-diyl)bis(5,6-dichloro-1H-indole) [compound 461]",64x
11,CN(C)CCCNc1nc(-c2cn(Cc3ccccc3)c3c(Cl)cccc23)nc2c(-c3ccncc3)cccc12 [compound 571],4x
12,Clc1ccc2[nH]cc(/C=C/c3ccc(Cl)c(Cl)c3)c2c1 [compound 365],16-64x (4 μM);
13,CCN(CC)CCCC(C)Nc1nc(-c2cn(Cc3ccc(C)cc3)c3c(Cl)cccc23)nc2c(C)cccc12 (racemic) [compound 572],4x
14,Cc1cccc2c(NCCCN)nc(-c3cc(Br)cc(C(F)(F)F)c3)nc12 [524a],128x
15,FC(F)(F)c1ccc2c(/C=C/c3ccc(Cl)c(Cl)c3)c[nH]c2c1 [compound 364],32-64x
16,CN(C)CCCNc1nc(-c2cccc(-c3ccc(Cl)c(Cl)c3)c2)nc2c(Cl)cccc12 [compound 488],32x
17,CNCCCNc1nc(-c2cn(Cc3ccc(Cl)cc3)c3c(Cl)cccc23)nc2c(C)cccc12 [compound 583],4x
18,CN(C)CCCNc1nc(-c2cccc(-c3ccc(C(F)(F)F)c(F)c3)c2)nc2c(Cl)cccc12 [compound 489],16x

# Same assay, conditions: compound concentration 8 μM; fold shift of colistin MIC; nc = no changeover or no shift
row,Compound,"colistin MIC shift, Ab23 at (compd concentration) [x]"
1,Cc1cccc2c(NCCCN(C)C)nc(-c3cccc(C(F)(F)F)c3)nc12 [compound 499],16
2,CN(C)CCCn1nc(-c2ccc(Cl)c(Cl)c2)c2ccc(C(F)(F)F)cc21 [559a],8

# Same assay, conditions: compound concentration 10 μM; fold shift of colistin MIC; nc = no changeover or no shift
row,Compound,"colistin MIC shift, Ab23 at (compd concentration) [x]"
1,Cc1cccc(-c2n[nH]c3cc(F)ccc23)c1 [compound 535],1
2,Clc1ccc2[nH]nc(-c3cccc(-c4ccc(Cl)c(Cl)c4)c3)c2c1 [compound 532],4
3,FC(F)(F)c1cc(Cl)cc(-c2n[nH]c3cc(C(F)(F)F)ccc23)c1 [compound 551],32
4,CCN(CC)CCCC(C)Nc1nc(/C=C/c2ccc(Cl)c(Cl)c2)nc2cc(F)c(F)cc12 (racemic) [compound 321],8
5,Cc1cccc2c(NCCCN(C)C)nc(-c3ccc(Cl)c(Cl)c3)nc12 [compound 458],16
6,FC(F)(F)c1cc(-c2c[nH]c3cc(Cl)c(Cl)cc23)cc(C(F)(F)F)c1 [compound 435],16
7,Fc1cc(-c2n[nH]c3cc(C(F)(F)F)ccc23)ccc1C(F)(F)F [compound 546],1
8,O=C(c1ccc(Cl)c(Cl)c1)n1nc(-c2ccc(Cl)c(Cl)c2)c2ccc(C(F)(F)F)cc21 [compound 558],1
9,FC(F)(F)c1ccc2c(-c3ccc(Cl)c(Cl)c3)nn(Cc3cccc(Cl)c3)c2c1 [compound 545],1
10,CCN(CC)CCCC(C)Nc1nc(-c2cn(Cc3cccc(C)c3)c3c(Cl)cccc23)nc2c(C)cccc12 (racemic) [compound 574],8
11,FC(F)(F)c1ccc2c(-c3ccc(Cl)c(Cl)c3)nn(Cc3ccc(Cl)cc3)c2c1 [compound 542],1
12,COC(=O)c1cc(-c2n[nH]c3cc(C(F)(F)F)ccc23)cc(C(F)(F)F)c1 [compound 553],1
13,COc1cc(-c2n[nH]c3cc(C(F)(F)F)ccc23)cc(C(F)(F)F)c1 [compound 552],8
14,Fc1cc(C(F)(F)F)ccc1-c1cccc(-c2n[nH]c3cc(C(F)(F)F)ccc23)c1 [compound 531],4

# — patent publication US20160168140A1, “HETEROCYCLIC COMPOUNDS AS ANTIBIOTIC POTENTIATORS” (priority 2014, published 2016)
